The source of these data is patent US7122214B2, “Drynaria extractions for treating osteoporosis and their extraction process” (priority 2000, dated 2006).

The assay concerns Ovariectomized (OVX) rats. Nature of the assay: Bone biomechanics (three point bending of left thighbone) in Ovariectomized (OVX) rats. Type of assay: in vivo, Wistar rats. Here is the method:
Observe the effect of RDE in this invention on both Tretinoin-induced and Ovariectomized (OVX) osteoporosis model in rats. […] RDE was dissolved in distilled water to a concentration of 0.47 mg/ml before administration. And administration was conducted via gastric tube. Tretinoin is manufactured by Chongqing Huabang Pharmaceuticals, Ltd. and was suspended to the concentration of 1.5% with distilled water. Control drug α-D3 was manufactured by TEVA PHARMACEUTICALS, Israel, which is solved in distilled water to the concentration of 0.03 μg/ml before using and administrated orally via gastric tube. Tretinoin-induced osteoporosis rats: sixty female […]-old, mean weight 234.85±15.32 g. Ovariectomized rats: sixty female Wistar rats, 12-week-old, mean weight 183.46±12.45 g. All the animals are obtained from the Experimental Animal Center of Chinese Military Medical Academy. Bone Biomechanics Rheometer was manufactured by Stevens Company, Great Britain (model QTS-25). X ray Bone-density-meter was manufactured by Norland Company, USA (model XR-26). The others are all obtained from market. 4. Dose Selections and Groups: • (1) Tretinoin-induced group: Sixty rats are randomly allocated to six groups (10 rats per group). Blank group: control animals received PSS/d (physiological saline solution) alone. Model group: Tretinoin is given orally 70 mg/kg/d; α-D3 group: both tretinoin and α-D3 are given orally 70 mg/kg/d and 0.002 μg/kg/d respectively; RDE low-dose group: both tretinoin and RDE are given orally 70 mg/kg/d and 54 mg/kg/d respectively; RDE medium-dose group: tretinoin 70 mg/kg/d and RDE 108 mg/kg/d; RDE high-dose group: tretinoin 70 mg/kg/d and RDE 216 mg/kg/d. • (2) Ovariectomized (OVX) rats group: Sixty rats are randomly allocated to six groups (10 rats per group). Blank group is the normal rats. All the other groups are removed amphi-ovaries. Model group received PSS only; α-D3 group: α-D3 is administrated orally 0.002 μg/kg/d; And RDE is administrated orally in the dose of 54, 108, 216 mg/kg/day to OVX rats respectively, corresponding to RDE groups of low-dose, medium-dose and high-dose. The dose administered to each animal is calculated from the individual body weight recorded at the end of each week. OVX rats groups: Both blank and model groups are given the same volume of distilled water orally, All the other groups commenced treatment according to the way mentioned above for 12 weeks after which animals are sacrificed and investigation of Bone Density and Bone-biomechanics are performed. 7. Measurements • 7.1. […] Bone biomechanics measurements: three point bending tests of left thighbone of each animal are performed; load-deformation curve is recorded to measure the biomechanics index. Experimental parameters: span 20 mm, loading velocity 10 mm/min. Bone structural mechanics parameters: breaking load, elastic load, maximum radius, elastic radius, maximum energy absorption; bone material mechanics parameters: firstly calculated the Femoral Section Inertial Moment, then computed the maximum strain, elastic strain, maximum stress, elastic stress and elastic modulus according to the formulae. [Results]

Setting [1] is: OVX rats, α-D3 0.002 μg/kg/d oral 12 weeks.

For the compound `C=C1/C(=C\C=C2/CCC[C@]3(C)[C@@H]([C@H](C)CCCC(C)C)CC[C@@H]23)C[C@@H](O)C[C@@H]1O` [α-D3], under “OVX rats (Table 12)”, the “all the bone structural mechanics indicators compared with model group” value is “increased significantly”. Further, under setting [1], the “Area of bone cortes” value is listed as 4.13 ± 0.99, the Elastic load was found to be 88.6 ± 12.7 N, the Elastic mould was found to be 7992 ± 1132 and the “Elastic strain (material)” value was 0.03 ± 0.010. For the same compound, under setting [1], the Elastic stress was 147.2 ± 11.00 N/mm^2, the Maximum energy observation is listed as 520.48 ± 108.44 N-mm^2, the Maximum load is recorded as 102.1 ± 2.90 N and the “Maximum strain (material)” value is reported as 0.03 ± 0.006. Under setting [1], the “Maximum strain (structural)” value worked out at 0.96 ± 0.10 mm, the Maximum stress came out at 221.5 ± 46.50 N/mm^2 and the Rigidity coefficient came to 27508 ± 8073.
